# Results published in ChEMBL document CHEMBL4507281, “Data for DCP probe BI-4394” (2021).
# Assays:
# Conditions in all cases: Compound concentration 10.0 uM
# [1] = target: Rho-associated protein kinase 1 (Homo sapiens) (UniProt Q13464)
# [2] = target: Mitogen-activated protein kinase kinase kinase kinase 4 (Homo sapiens) (UniProt O95819)
# [3] = target: Ephrin type-A receptor 2 (Homo sapiens) (UniProt P29317)
# [4] = target: D(1A) dopamine receptor (Homo sapiens) (UniProt P21728)
# [5] = target: Serine/threonine-protein kinase PAK 4 (Homo sapiens) (UniProt O96013)
# [6] = target: Mast/stem cell growth factor receptor Kit (Homo sapiens) (UniProt P10721)
# Chain of Mast/stem cell growth factor receptor Kit (Homo sapiens) (P10721 whole entry): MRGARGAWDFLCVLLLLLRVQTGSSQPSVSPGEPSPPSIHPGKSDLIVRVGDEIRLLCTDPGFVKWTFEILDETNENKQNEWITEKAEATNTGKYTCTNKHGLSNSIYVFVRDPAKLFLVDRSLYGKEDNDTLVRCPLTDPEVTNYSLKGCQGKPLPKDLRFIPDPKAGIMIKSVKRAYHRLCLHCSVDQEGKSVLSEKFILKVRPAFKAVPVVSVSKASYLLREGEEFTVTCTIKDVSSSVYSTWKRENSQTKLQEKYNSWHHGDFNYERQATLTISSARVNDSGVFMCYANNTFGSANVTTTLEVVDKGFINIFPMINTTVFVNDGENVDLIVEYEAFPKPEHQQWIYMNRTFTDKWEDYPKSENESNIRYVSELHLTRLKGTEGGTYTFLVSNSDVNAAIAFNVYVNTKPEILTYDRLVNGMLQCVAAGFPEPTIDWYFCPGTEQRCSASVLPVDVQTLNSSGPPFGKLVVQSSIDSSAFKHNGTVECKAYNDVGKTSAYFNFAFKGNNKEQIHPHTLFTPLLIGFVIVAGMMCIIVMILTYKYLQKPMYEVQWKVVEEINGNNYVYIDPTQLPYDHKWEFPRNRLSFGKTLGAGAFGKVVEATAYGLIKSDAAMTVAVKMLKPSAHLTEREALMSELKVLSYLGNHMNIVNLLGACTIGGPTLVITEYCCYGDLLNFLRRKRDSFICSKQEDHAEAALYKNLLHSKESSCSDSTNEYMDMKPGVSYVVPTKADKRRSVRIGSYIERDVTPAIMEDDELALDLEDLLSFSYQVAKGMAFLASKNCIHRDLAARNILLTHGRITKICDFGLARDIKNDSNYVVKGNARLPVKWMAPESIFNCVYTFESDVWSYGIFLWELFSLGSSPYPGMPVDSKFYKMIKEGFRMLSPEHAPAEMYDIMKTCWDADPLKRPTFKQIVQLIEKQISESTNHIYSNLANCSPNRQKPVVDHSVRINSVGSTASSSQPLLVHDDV
# [7] = target: Platelet-derived growth factor receptor beta (Homo sapiens) (UniProt P09619)
# [8] = target: Hepatocyte growth factor receptor (Homo sapiens) (UniProt P08581)
# [9] = target: Mitogen-activated protein kinase kinase kinase 9 (Homo sapiens) (UniProt P80192)
# [10] = target: Ribosomal protein S6 kinase beta-1 (Homo sapiens) (UniProt P23443)
# [11] = target: T1, Tyrosine-protein kinase JAK3 (Homo sapiens) (UniProt P52333)
# T1 sequence (whole entry): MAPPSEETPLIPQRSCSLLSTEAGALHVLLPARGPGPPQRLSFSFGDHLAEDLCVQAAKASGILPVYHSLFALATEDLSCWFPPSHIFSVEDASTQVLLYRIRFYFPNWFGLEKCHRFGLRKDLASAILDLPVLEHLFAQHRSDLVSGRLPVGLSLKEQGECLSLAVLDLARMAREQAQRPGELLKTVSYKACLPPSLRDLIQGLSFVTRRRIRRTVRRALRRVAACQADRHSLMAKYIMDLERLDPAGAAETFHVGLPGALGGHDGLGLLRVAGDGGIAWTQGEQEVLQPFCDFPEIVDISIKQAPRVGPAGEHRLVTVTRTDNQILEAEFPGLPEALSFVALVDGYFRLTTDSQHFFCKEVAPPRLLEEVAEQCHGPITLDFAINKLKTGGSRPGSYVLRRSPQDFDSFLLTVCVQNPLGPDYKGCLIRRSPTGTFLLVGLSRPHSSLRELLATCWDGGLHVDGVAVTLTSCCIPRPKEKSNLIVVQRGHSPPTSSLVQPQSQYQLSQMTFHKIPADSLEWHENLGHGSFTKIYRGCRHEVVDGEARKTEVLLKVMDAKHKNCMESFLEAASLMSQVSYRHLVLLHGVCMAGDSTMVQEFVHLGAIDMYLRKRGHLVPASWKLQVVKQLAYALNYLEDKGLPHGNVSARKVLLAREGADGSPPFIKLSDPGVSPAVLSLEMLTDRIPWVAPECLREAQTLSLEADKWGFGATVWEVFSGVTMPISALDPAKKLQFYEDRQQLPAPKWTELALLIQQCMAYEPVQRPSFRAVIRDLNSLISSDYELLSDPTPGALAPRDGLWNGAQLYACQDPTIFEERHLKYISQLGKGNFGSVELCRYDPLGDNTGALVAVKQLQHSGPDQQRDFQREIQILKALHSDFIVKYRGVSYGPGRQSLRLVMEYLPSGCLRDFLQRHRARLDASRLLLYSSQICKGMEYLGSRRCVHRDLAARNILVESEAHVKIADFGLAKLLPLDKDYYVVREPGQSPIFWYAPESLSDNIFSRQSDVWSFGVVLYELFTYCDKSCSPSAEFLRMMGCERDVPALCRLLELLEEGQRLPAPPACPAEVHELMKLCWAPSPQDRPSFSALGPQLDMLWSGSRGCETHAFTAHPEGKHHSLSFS
# [12] = target: Serine/threonine-protein kinase pim-1 (Homo sapiens) (UniProt P11309)
# [13] = target: Epidermal growth factor receptor (Homo sapiens) (UniProt P00533)
# Chain of Epidermal growth factor receptor (Homo sapiens) (P00533 whole entry): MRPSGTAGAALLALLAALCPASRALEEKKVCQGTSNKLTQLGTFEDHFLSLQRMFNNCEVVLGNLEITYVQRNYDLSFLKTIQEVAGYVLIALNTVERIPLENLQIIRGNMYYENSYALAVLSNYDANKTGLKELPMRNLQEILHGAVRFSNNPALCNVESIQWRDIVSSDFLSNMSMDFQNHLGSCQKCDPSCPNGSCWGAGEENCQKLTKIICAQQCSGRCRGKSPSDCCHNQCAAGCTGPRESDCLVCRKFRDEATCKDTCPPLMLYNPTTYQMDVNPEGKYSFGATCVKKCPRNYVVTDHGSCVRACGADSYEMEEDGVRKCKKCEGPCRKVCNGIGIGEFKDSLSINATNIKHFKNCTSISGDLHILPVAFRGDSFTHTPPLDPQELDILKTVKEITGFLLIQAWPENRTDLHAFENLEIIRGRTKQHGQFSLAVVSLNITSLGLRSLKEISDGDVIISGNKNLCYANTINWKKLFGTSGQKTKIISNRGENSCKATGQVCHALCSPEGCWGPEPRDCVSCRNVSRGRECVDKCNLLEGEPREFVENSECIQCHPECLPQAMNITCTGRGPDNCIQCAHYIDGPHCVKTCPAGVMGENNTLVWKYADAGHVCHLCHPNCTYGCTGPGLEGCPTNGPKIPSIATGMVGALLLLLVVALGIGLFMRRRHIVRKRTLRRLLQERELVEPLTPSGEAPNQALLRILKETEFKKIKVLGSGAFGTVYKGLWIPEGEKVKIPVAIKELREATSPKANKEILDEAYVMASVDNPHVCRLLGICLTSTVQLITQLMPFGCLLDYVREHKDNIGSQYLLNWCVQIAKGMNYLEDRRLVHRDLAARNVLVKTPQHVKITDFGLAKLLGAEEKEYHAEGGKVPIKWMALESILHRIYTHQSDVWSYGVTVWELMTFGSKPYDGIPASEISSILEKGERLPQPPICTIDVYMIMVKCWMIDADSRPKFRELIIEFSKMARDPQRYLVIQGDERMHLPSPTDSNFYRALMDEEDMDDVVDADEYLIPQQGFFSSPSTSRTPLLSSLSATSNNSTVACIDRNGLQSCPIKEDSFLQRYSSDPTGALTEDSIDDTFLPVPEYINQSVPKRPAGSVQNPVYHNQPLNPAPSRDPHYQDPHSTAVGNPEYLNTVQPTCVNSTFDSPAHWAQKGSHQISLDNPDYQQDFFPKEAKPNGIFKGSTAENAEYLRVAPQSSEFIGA
# [14] = target: Tyrosine-protein kinase Lck (Homo sapiens) (UniProt P06239)
# [15] = target: T2, Protein kinase C epsilon type (Homo sapiens) (UniProt Q02156)
# T2 sequence (whole entry): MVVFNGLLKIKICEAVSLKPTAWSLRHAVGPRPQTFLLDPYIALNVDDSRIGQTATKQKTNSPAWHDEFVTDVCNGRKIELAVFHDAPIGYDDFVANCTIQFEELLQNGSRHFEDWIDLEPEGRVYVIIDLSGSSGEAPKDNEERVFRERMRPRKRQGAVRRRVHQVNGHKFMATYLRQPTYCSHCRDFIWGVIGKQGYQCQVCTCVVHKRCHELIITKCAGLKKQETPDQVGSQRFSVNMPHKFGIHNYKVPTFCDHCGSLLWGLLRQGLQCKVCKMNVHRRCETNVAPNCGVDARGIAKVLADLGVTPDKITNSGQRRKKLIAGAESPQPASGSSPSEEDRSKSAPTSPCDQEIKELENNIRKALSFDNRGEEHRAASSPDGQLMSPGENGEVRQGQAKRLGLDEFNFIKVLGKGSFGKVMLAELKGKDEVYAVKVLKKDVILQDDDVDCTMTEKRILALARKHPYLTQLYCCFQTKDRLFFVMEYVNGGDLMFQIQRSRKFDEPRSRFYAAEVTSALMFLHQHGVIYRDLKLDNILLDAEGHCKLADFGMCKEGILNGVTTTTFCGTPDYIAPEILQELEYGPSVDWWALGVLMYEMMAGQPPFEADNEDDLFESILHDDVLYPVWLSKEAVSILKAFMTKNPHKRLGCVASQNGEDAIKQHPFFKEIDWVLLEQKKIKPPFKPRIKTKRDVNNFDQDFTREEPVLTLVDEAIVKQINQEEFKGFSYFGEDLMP
# [16] = target: Ribosomal protein S6 kinase alpha-3 (Homo sapiens) (UniProt P51812)
# Chain of Ribosomal protein S6 kinase alpha-3 (Homo sapiens) (P51812 whole entry): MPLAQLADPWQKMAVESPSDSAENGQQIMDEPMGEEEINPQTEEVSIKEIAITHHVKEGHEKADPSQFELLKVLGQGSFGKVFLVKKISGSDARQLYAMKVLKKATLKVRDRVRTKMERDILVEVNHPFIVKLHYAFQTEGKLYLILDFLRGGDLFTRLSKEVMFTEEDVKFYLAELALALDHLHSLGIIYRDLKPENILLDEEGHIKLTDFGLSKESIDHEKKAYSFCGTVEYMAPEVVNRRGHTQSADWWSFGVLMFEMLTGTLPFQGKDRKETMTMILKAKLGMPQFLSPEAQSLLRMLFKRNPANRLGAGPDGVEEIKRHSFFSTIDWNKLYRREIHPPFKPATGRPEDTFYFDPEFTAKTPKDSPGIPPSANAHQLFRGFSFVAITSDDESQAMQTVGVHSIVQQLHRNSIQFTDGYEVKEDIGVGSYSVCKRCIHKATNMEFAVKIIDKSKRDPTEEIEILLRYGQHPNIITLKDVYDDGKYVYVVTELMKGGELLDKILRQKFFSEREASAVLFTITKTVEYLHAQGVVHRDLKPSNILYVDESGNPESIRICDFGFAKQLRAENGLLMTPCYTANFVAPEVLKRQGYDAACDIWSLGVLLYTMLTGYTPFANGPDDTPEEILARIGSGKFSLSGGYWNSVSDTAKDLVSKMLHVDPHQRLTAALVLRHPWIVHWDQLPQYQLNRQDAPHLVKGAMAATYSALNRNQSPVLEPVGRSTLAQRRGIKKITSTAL
# [17] = target: Protein kinase C beta type (Homo sapiens) (UniProt P05771)
# [18] = target: Alpha-1A adrenergic receptor (Homo sapiens) (UniProt P35348)
# Chain of Alpha-1A adrenergic receptor (Homo sapiens) (P35348 whole entry): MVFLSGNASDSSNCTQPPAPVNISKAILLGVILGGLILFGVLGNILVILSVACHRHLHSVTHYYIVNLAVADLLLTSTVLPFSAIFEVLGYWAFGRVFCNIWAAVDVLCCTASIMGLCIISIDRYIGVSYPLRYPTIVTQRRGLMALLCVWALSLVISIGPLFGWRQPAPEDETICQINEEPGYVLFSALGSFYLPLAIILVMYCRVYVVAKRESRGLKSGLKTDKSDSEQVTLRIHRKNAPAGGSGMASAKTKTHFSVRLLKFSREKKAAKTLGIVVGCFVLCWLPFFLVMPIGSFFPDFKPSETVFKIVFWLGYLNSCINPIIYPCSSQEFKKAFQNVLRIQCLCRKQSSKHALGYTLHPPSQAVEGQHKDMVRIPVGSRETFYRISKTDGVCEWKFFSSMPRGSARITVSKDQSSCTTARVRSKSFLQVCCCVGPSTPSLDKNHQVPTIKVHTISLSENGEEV
# [19] = target: D(4) dopamine receptor (Homo sapiens) (UniProt P21917)
# [20] = target: Histamine H2 receptor (Homo sapiens) (UniProt P25021)
# [21] = target: 5-hydroxytryptamine receptor 1A (Homo sapiens) (UniProt P08908)
# Chain of Ephrin type-A receptor 2 (Homo sapiens) (P29317 whole entry): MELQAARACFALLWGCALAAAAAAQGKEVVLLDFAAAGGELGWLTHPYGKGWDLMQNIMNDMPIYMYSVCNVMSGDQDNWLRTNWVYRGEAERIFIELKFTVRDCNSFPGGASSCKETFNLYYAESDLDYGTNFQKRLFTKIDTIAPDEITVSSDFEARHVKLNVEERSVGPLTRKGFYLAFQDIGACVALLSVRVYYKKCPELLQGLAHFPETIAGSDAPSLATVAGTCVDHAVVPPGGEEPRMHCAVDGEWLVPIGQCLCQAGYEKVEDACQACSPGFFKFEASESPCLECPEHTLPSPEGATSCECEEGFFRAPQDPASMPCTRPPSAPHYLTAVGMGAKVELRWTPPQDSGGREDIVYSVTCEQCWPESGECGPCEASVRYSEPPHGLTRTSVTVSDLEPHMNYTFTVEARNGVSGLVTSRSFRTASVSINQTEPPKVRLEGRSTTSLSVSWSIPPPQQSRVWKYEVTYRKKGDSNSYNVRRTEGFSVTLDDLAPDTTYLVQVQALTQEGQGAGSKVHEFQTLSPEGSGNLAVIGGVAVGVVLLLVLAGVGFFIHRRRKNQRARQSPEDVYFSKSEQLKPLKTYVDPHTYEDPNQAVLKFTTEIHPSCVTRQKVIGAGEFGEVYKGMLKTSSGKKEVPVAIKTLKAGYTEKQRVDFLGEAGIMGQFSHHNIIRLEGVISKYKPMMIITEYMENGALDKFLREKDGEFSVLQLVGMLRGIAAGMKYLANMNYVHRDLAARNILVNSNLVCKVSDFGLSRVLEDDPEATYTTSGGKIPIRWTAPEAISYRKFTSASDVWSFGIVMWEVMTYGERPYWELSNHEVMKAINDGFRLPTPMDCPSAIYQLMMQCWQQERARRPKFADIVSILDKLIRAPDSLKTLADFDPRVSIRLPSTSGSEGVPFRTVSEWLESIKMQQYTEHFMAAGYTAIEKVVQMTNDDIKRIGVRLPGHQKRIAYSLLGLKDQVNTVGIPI
# Chain of D(1A) dopamine receptor (Homo sapiens) (P21728 whole entry): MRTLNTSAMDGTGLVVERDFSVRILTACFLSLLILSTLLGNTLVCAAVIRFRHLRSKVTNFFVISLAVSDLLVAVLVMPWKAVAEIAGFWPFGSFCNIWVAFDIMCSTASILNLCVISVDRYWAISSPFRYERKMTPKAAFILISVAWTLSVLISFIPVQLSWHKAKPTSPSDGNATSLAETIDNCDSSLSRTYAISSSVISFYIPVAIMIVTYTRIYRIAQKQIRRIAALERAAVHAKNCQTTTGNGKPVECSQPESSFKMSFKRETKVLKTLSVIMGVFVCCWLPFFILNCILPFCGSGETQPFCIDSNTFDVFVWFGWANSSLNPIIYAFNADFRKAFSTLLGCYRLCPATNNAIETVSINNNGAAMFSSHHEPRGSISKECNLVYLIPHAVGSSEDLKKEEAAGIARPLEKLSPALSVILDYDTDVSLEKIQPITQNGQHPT
structure (smiles),measurement,setting,value
CCOC(=O)c1cc2cc(-c3cc(C(=O)NCc4ccc(C(=O)O)cc4)nn3C)ccc2[nH]1 [BI 4394],residual activity,[1],97%
same,residual activity,[2],32%
same,residual activity,[3],85%
same,inhibition,[4],-5.02%
same,residual activity,[5],75%
same,residual activity,[6],77%
same,residual activity,[7],96%
same,residual activity,[8],43%
same,residual activity,[9],93%
same,residual activity,[10],89%
same,residual activity,[11],44%
same,residual activity,[12],14%
same,residual activity,[13],99%
same,residual activity,[14],68%
same,residual activity,[15],115%
same,residual activity,[16],5%
same,residual activity,[17],97%
same,inhibition,[18],-6.15%
Cn1nc(C(=O)NCc2ccc(C(=O)O)cc2)cc1-c1ccc2[nH]ccc2c1 [BI 4395],inhibition,[19],-8.91%
same,inhibition,[20],8.57%
same,inhibition,[21],22.7%
